Reference: publication PMC8447191, “Peptide Amphiphilic-Based Supramolecular Structures with Anti-HIV-1 Activity” (Bioconjugate Chemistry, 2021)
*1 amine or outer side, *2 acyl side, *3 side chain or, on linkers, in order; H or OH if unused. Where a SMILES comes first, the peptide text is derived from it. Side-chain parts run from the residue outwards. The star is where a group is joined. PEG28 = NCCOCCOCCOCCOCCOCCOCCOCCOCCOCCOCCOCCOCCOCCOCCOCCOCCOCCOCCOCCOCCOCCOCCOCCOCCOCCOCCOCCOCCC(=O)O; N(octadecyl)2 = CCCCCCCCCCCCCCCCCCN(CCCCCCCCCCCCCCCCCC)*; Suc = O=C(CCC(=O)[*:2])[*:1]

Columns and labels:
[1] = Visual stability and aspect of POPC vesicles mixed with PAs (SAXS samples); type: physicochemical; details: POPC 20 mM + 2 mM PA, 0.5% DMSO
Experimental: In Figure 5A,B, we show the spectra corresponding to POPC 20 mM and POPC 20 mM + 2 mM PAs (all of them in the presence of 0.5% DMSO). The band centered at 1.2 nm^–1 and the secondary band at 3.2 nm^–1 were typical of unilamellar vesicles.[35]
The incorporation of PAs had some distinct consequences. The first and more obvious one is the distinction between stable and unstable systems.

HIV-1BaL = type: cell-based; details: HIV-1BaL, TZM-bl cells; peptide 10-0.00061 μM for 1 h at 37 °C before virus; luciferase after 48 h; sigmoid fit; mean of triplicates
Experimental: HIV-1BaL[52] was provided by the NIH AIDS Research & Reference Reagent Program (http://www.aidsreagent.org/). Viral stock was prepared by passage through activated PBMCs[53] for 11 days.
Luciferase-reporter HeLa cells stably transfected to express CD4 and CCR5; TZM-bl cells[54]−[56] were grown in Dulbecco’s Minimal Essential Medium (DMEM) (Sigma-Aldrich, Inc., St. Louis, MO) containing 10% fetal calf serum (FCS), 2 mM L-glutamine, and antibiotics (100 U of penicillin/mL, 100 μg of streptomycin/mL) at 37 °C in an atmosphere containing 5% CO2.
All inhibition assays in cellular and tissue explants models were performed using a standardized amount of virus culture supernatant normalized for infectivity. TZM-bl cells were incubated with serial dilutions of peptides (from 10 μM to 0.00061 μM) for 1 h at 37 °C, prior to challenge with HIV-1BaL. Luciferase expression (r.l.u. values) was determined after 48 h. Alternatively, tissue explants were incubated with serial dilutions of peptide (from 100 μM to 0.1 μM) for 1 h before virus (10^4 TCID50/mL) was added for 2 h. Explants were then washed four times with PBS to remove unbound virus and drug. Colorectal explants were then transferred onto gelfoam rafts (Welbeck Pharmaceuticals, UK) and cultured for 15 days as described previously[57] […]. Explants were cultured for up to 15 days in the absence of peptide. Approximately 50% of the supernatants were harvested every 2–3 days and explants were re-fed with fresh media. The extent of viral replication in tissue explants was determined by measuring the p24 antigen concentration in supernatants (INNOTEST HIV antigen mAb; Fujirebio Europe, Belgium). The extent of inhibition by each peptide was calculated. The percentage of inhibition was normalized relative to the r.l.u, for TZM-bl cells, or p24, for tissue explants, values obtained for cells or explants cultured in the absence of virus (100% inhibition) and for cells or explants infected with virus in the absence of peptide (0% inhibition). Data are the mean (±SEM) of triplicates. When a dose–response curve was obtained, IC50 and, if possible, IC95 values were calculated from sigmoid curve fits (GraphPad Prism). For all curves, R^2 is >0.7.

MTT cytotoxicity assay = type: cell-based; details: human, HeLa-env cells, PAs coassembled with 5% FAM, 40-2.3 μM, absorbance 560 nm
Experimental: The metabolic activity of the cell line, related to the cytotoxic effect of the compounds to be tested, is measured after 24 h using the MTT assay. This assay is based on the metabolic reduction of 3-(4,5-dimethylthiazol-2-yl)-2,5-diphenyl-2H-tetrazolium bromide (MTT), carried out by the mitochondrial enzyme succinate dehydrogenase, in a colored compound of blue color (formazan) that can be monitored by absorbance spectroscopy at 560 nm, allowing determination of the mitochondrial functionality of the treated cells.
The HeLa-env cell line is seeded in 96-well plates with an initial density of 15,000 cells per well in 100 μL of culture medium (Dulbecco’s modified Eagle’s medium, DMEM, with 10% FBS added) and incubated for 24 h at 37 °C and 5% CO2 to allow their adhesion. The cell monolayers are washed with PBS, and then 100 μL of PAs formulations (peptide amphiphiles coassembled with 5% FAM) are added in a concentration range from 40 μM to 2.3 μM. The plates are kept in incubation for further 24 h.
At the end of the incubation time, the cells are incubated for 3 h with 1 mg/mL of MTT, dissolved in culture medium without FBS, to allow the formation of formazan crystals. Subsequently, 100 μL of DMSO are added to wells, stirring the plates for 30 min at room temperature to facilitate the complete dissolution of the crystals. Finally, the absorbance at 560 nm is measured in a microplate reader.
The results are expressed as relative percentage between absorbance of PA formulations against absorbance of its DMSO controls and CC50 and CC25 values are taken from dose–response curves.

Question: Which “stability / aspect of the sample” value [1] does the source give for CCCCCCCCCCCCCCCCCCN(CCCCCCCCCCCCCCCCCC)C(=O)CCC(=O)NCCOCCOCCOCCOCCOCCOCCOCCOCCOCCOCCOCCOCCOCCOCCOCCOCCOCCOCCOCCOCCOCCOCCOCCOCCOCCOCCOCCOCCC(=O)NCCCC[C@H](NC(=O)[C@H](Cc1c[nH]c2ccccc12)NC(=O)[C@H](CC(C)C)NC(=O)[C@H](Cc1ccc(O)cc1)NC(=O)[C@H](CCC(=O)O)NC(=O)[C@H](CC(C)C)NC(=O)[C@@H](NC(=O)[C@@H](N)Cc1c[nH]c2ccccc12)[C@@H](C)CC)C(=O)N[C@H](C(=O)N1CCC[C@H]1C(=O)N[C@@H](Cc1ccccc1)C(=O)N[C@@H](CC(=O)O)C(=O)N[C@@H](Cc1ccccc1)C(=O)N[C@@H](Cc1c[nH]c2ccccc12)C(=O)N[C@@H](CCCNC(=N)N)C(=O)NCC(=O)N[C@H](C(=O)N[C@H](C(N)=O)[C@@H](C)CC)C(C)C)C(C)C [K-PAdialkyl] (H-WILEYLWK([PEG28-Suc-N(octadecyl)2])VPFDFWRGVI-NH2) here?
Answer: milky

Question: What about the IC50 (HIV-1BaL) of the same molecule?
Answer: 50 nM

Question: What about the vesicular bilayer thickness of the same molecule?
Answer: 9 nm

Question: And the CC50 at 24 h (MTT cytotoxicity assay)?
Answer: > 40000 nM
